# Assay results: patent publication US9321776B2, “Isochromene derivatives as phoshoinositide 3-kinases inhibitors” (CHIESI FARMACEUTICI S.p.A., priority 2013, dated 2016)
# Where a name gives a salt, the structure may show the parent alone.
# Tests used:
# Assay in all cases: PI3K enzyme inhibitory activity in the cell free assay (ADP-Glo Kinase Assay)
# Format in all cases: biochemical
# [1] = molecular target: T1, PI3Kβ (Homo sapiens, UniProt P42338); conditions: human recombinant PI3Kβ, ATP 100 μM; read-out: PI3K beta inhibition
# T1 construct: purchased Millipore Ltd (Billerica, Mass.)
# [2] = molecular target: T2, PI3Kδ (Homo sapiens, UniProt O00329); conditions: human recombinant PI3Kδ, ATP 80 μM; read-out: PI3K delta inhibition
# T2 construct: purchased Millipore Ltd (Billerica, Mass.)
# T2 sequence (O00329 1-1044): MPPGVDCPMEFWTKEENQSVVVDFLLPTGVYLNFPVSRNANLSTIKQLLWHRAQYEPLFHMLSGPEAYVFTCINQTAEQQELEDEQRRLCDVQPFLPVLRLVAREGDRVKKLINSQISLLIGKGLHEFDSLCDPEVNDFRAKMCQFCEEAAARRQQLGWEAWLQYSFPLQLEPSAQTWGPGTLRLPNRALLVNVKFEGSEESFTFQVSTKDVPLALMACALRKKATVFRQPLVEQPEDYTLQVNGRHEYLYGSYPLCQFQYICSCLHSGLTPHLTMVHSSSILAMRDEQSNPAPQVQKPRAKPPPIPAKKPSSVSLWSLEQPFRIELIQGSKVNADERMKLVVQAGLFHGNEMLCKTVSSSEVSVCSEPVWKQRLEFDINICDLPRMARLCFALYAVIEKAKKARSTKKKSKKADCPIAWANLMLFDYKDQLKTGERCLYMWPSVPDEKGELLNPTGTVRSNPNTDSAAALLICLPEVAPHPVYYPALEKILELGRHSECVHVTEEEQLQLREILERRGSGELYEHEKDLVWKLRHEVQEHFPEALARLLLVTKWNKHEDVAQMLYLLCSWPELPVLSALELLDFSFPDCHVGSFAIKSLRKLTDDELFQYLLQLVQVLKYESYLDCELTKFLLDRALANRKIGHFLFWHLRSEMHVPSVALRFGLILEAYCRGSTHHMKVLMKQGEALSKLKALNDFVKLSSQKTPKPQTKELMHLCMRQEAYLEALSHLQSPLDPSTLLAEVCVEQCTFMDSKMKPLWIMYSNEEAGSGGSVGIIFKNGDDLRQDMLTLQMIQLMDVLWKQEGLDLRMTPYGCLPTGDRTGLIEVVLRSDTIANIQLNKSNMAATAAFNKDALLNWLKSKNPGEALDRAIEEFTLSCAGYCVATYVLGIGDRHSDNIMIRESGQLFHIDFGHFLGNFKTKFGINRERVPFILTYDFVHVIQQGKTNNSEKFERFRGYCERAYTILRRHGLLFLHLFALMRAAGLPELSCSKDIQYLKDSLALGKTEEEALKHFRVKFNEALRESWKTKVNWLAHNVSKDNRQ
# [3] = molecular target: T3, PI3Kγ (Homo sapiens, UniProt P48736); conditions: human recombinant PI3Kγ, ATP 30 μM; read-out: PI3K gamma inhibition
# T3 construct: purchased Millipore Ltd (Billerica, Mass.)
# T3 sequence (P48736 whole entry): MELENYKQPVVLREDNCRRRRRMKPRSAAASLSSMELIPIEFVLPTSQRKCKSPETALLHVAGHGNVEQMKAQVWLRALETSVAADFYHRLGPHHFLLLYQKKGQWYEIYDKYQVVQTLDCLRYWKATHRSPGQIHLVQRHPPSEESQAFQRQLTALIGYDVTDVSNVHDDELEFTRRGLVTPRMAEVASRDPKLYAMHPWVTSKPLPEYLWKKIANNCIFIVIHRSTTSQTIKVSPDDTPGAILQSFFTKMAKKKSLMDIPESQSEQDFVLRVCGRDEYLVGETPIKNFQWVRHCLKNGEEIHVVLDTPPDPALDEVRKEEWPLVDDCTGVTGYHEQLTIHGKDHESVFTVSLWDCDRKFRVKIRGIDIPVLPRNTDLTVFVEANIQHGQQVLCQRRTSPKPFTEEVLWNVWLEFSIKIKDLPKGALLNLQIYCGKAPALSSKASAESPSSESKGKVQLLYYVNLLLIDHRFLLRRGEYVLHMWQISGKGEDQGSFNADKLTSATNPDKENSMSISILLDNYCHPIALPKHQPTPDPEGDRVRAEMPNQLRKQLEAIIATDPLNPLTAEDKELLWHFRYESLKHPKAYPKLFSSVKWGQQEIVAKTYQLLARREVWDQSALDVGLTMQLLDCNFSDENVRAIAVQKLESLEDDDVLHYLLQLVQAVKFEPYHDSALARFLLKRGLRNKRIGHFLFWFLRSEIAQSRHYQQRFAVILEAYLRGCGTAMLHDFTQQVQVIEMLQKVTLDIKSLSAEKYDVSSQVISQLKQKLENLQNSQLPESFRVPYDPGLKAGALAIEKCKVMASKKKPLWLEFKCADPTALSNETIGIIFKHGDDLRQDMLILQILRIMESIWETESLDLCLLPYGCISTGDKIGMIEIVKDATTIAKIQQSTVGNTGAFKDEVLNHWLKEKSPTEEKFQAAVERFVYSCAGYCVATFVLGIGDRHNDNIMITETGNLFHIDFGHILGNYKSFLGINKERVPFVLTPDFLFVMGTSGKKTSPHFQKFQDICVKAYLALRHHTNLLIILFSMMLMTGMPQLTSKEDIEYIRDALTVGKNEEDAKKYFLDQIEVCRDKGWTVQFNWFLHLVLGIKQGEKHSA
# T1 sequence (P42338 whole entry): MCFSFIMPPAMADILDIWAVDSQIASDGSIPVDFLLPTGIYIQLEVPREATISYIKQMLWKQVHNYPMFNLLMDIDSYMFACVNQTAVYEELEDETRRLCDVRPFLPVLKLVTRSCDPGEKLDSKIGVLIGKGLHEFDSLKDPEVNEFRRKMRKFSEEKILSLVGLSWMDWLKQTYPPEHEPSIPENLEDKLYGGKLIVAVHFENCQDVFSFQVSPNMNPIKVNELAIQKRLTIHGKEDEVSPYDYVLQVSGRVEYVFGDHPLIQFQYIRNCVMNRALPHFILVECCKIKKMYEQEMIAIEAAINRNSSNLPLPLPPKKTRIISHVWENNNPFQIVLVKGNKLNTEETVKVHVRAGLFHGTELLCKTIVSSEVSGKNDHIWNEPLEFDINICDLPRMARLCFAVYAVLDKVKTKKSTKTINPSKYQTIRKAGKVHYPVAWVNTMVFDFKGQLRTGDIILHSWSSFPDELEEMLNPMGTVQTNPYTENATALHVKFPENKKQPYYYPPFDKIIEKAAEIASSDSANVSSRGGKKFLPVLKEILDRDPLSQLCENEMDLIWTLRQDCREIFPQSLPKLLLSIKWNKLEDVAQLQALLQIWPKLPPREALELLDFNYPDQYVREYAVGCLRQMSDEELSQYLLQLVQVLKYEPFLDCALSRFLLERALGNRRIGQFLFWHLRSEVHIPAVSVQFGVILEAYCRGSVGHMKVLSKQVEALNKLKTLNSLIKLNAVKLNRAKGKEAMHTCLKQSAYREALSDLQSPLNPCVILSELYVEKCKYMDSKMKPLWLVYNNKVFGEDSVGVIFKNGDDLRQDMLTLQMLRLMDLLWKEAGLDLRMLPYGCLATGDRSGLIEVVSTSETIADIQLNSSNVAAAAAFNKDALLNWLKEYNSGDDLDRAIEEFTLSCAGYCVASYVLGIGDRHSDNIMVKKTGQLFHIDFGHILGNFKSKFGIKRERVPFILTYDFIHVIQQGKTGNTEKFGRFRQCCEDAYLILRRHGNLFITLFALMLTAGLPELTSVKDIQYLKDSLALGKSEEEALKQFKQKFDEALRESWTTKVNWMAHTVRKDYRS
IC50 [1] [nM],IC50 [2] [nM],IC50 [3] [nM],SMILES
10 to 1000,< 10,10 to 1000,"Cc1nn(C(C)c2oc(=O)c3ccccc3c2-c2ccccc2)c2ncnc(N)c12 (stereo not drawn) [Example 105, 3-(1-(4-amino-3-methyl-1H-pyrazolo[3,4-d]pyrimidin-1-yl)ethyl)-4-phenyl-1H-isochromen-1-one]"
10 to 1000,< 10,10 to 1000,"Cc1ncc(O)cc1-c1nn(C(C)c2oc(=O)c3ccccc3c2-c2ccccc2)c2ncnc(N)c12 (stereo not drawn) [Example 160, 3-(1-(4-amino-3-(5-hydroxy-2-methylpyridin-3-yl)-1H-pyrazolo[3,4-d]pyrimidin-1-yl)ethyl)-4-phenyl-1H-isochromen-1-one]"
> 1000,10 to 1000,> 1000,"CC(c1oc(=O)c2ccccc2c1-c1ccc(CN2CCNCC2)cc1)n1nc(-c2cc(O)cc(F)c2)c2c(N)ncnc21 (stereo not drawn) [Example 125, 3-(1-(4-amino-3-(3-fluoro-5-hydroxyphenyl)-1H-pyrazolo[3,4-d]pyrimidin-1-yl)ethyl)-4-(4-(piperazin-1-ylmethyl)phenyl)-1H-isochromen-1-one dihydrochloride]"
> 1000,10 to 1000,10 to 1000,"Nc1ncnc2c1c(I)nn2Cc1oc(=O)c2ccccc2c1-c1ccccc1 [Int D1, 3-((4-Amino-3-iodo-1H-pyrazolo[3,4-d]pyrimidin-1-yl)methyl)-4-phenyl-1H-isochromen-1-one]"
> 1000,10 to 1000,> 1000,"CC(c1oc(=O)c2ccccc2c1-c1ccccc1)n1nc(C(F)(F)F)c2c(N)ncnc21 (stereo not drawn) [Example 104, 3-(1-(4-amino-3-(trifluoromethyl)-1H-pyrazolo[3,4-d]pyrimidin-1-yl)ethyl)-4-phenyl-1H-isochromen-1-one]"
> 1000,10 to 1000,10 to 1000,"Cc1c(O)cncc1-c1nn(C(C)c2oc(=O)c3ccccc3c2-c2ccccc2)c2ncnc(N)c12 (stereo not drawn) [Example 159, 3-(1-(4-amino-3-(5-hydroxy-4-methylpyridin-3-yl)-1H-pyrazolo[3,4-d]pyrimidin-1-yl)ethyl)-4-phenyl-1H-isochromen-1-one]"
> 1000,10 to 1000,> 1000,"CC(c1oc(=O)c2ccccc2c1C1=CCN(Cc2ccccc2)CC1)n1nc(-c2cc(O)cc(F)c2)c2c(N)ncnc21 (stereo not drawn) [Example 131, 3-(1-(4-amino-3-(3-fluoro-5-hydroxyphenyl)-1H-pyrazolo[3,4-d]pyrimidin-1-yl)ethyl)-4-(1-benzyl-1,2,3,6-tetrahydropyridin-4-yl)-1H-isochromen-1-one hydrochloride]"

# Second part, the molecule before the results:
SMILES,IC50 [1] [nM],IC50 [2] [nM],IC50 [3] [nM]
"CC(c1oc(=O)c2ccccc2c1-c1cncs1)n1ncc2c(N)ncnc21 (stereo not drawn) [Example 18, 3-(1-(4-Amino-1H-pyrazolo[3,4-d]pyrimidin-1-yl)ethyl)-4-(thiazol-5-yl)-1H-isochromen-1-one]",10 to 1000,10 to 1000,> 1000
"CC(Nc1ncnc2[nH]cnc12)c1oc(=O)c2ccccc2c1-c1cccc(N(C)C)c1 (stereo not drawn) [Example 34, 3-(1-(9H-Purin-6-ylamino)ethyl)-4-(3-(dimethylamino)phenyl)-1H-isochromen-1-one]",> 1000,10 to 1000,10 to 1000
"Nc1ncnc2c1ncn2Cc1oc(=O)c2ccccc2c1-c1ccccc1 [Example 1, 3-((6-Amino-9H-1-purin-9-yl)methyl)-4-phenyl-1H-isochromen-1-one]",> 1000,10 to 1000,10 to 1000
"CC(Nc1ncnc2[nH]cnc12)c1oc(=O)c2ccccc2c1-c1ccc(CN2CCOCC2)s1 (stereo not drawn) [Example 28, 3-(1-(9H-Purin-6-ylamino)ethyl)-4-(5-(morpholinomethyl)thiophen-2-yl)-1H-isochromen-1-one]",> 1000,< 10,10 to 1000
"CC(c1oc(=O)c2ccccc2c1-c1ccc(CN2CCOCC2)s1)n1nc(-c2cc(O)cc(F)c2)c2c(N)ncnc21 (single isomer, unassigned) [Example 49b, 3-(1-(4-amino-3-(3-fluoro-5-hydroxyphenyl)-1H-pyrazolo[3,4-d]pyrimidin-1-yl)ethyl)-4-(5-(morpholinomethyl)thiophen-2-yl)-1H-isochromen-1-one hydrochloride]",> 1000,10 to 1000,> 1000
"Nc1ncnc2c1c(-c1ccc(O)c(F)c1)nn2Cc1oc(=O)c2ccccc2c1-c1ccccc1 [Example 39, 3-((4-Amino-3-(3-fluoro-4-hydroxyphenyl)-1H-pyrazolo[3,4-d]pyrimidin-1-yl)methyl)-4-phenyl-1H-isochromen-1-one]",> 1000,10 to 1000,10 to 1000
"Nc1ncnc2c1c(-c1ccc3cn[nH]c3c1)nn2Cc1oc(=O)c2ccccc2c1-c1ccccc1 [Example 38, 3-((4-Amino-3-(1H-indazol-6-yl)-1H-pyrazolo[3,4-d]pyrimidin-1-yl)methyl)-4-phenyl-1H-isochromen-1-one]",> 1000,10 to 1000,10 to 1000
"Cc1cccc(-c2c(Cn3cnc4c(N)ncnc43)oc(=O)c3ccccc23)c1 [Example 4, 3-((6-Amino-9H-purin-9-yl)methyl)-4-m-tolyl-1H-isochromen-1-one]",> 1000,10 to 1000,> 1000
"CCC(Nc1ncnc2[nH]cnc12)c1oc(=O)c2ccccc2c1-c1ccccc1 (stereo not drawn) [Example 25, 3-(1-(9H-Purin-6-ylamino)propyl)-4-phenyl-1H-isochromen-1-one]",> 1000,< 10,10 to 1000
"Nc1ncnc2c1c(-c1ccc3[nH]ncc3c1)nn2Cc1oc(=O)c2ccccc2c1-c1ccccc1 [Example 36, 3-((4-Amino-3-(1H-indazol-5-yl)-1H-pyrazolo[3,4-d]pyrimidin-1-yl)methyl)-4-phenyl-1H-isochromen-1-one]",> 1000,10 to 1000,10 to 1000
"CC(c1oc(=O)c2ccccc2c1-c1ccc(C(=O)O)s1)n1nc(-c2cc(O)cc(F)c2)c2c(N)ncnc21 (stereo not drawn) [Example 78, 5-(3-(1-(4-amino-3-(3-fluoro-5-hydroxyphenyl)-1H-pyrazolo[3,4-d]pyrimidin-1-yl)ethyl)-1-oxo-1H-isochromen-4-yl)thiophene-2-carboxylic acid]",> 1000,< 10,10 to 1000
"CC(c1oc(=O)c2ccccc2c1-c1ccccc1)n1nc(-c2cncc(N)c2)c2c(N)ncnc21 (stereo not drawn) [Example 88, 3-(1-(4-amino-3-(5-aminopyridin-3-yl)-1H-pyrazolo[3,4-d]pyrimidin-1-yl)ethyl)-4-phenyl-1H-isochromen-1-one hydrochloride]",10 to 1000,10 to 1000,> 1000
"CC(c1oc(=O)c2ccccc2c1-c1ccc(CN2CCCC2)s1)n1nc(-c2cc(O)cc(F)c2)c2c(N)ncnc21 (stereo not drawn) [Example 73, 3-(1-(4-amino-3-(3-fluoro-5-hydroxyphenyl)-1H-pyrazolo[3,4-d]pyrimidin-1-yl)ethyl)-4-(5-(pyrrolidin-1-ylmethyl)thiophen-2-yl)-1H-isochromen-1-one hydrochloride]",10 to 1000,< 10,> 1000
"O=c1oc(CNc2ncnc3[nH]cnc23)c(-c2ccccc2F)c2ccccc12 [Example 30, 3-((9H-Purin-6-ylamino)methyl)-4-(2-fluorophenyl)-1H-isochromen-1-one]",> 1000,10 to 1000,10 to 1000
"Nc1ncnc2c1c(-c1cc(O)cc(F)c1)nn2Cc1oc(=O)c2ccccc2c1-c1ccccc1 [Example 35, 3-((4-Amino-3-(3-fluoro-5-hydroxyphenyl)-1H-pyrazolo[3,4-d]pyrimidin-1-yl)methyl)-4-phenyl-1H-isochromen-1-one]",> 1000,< 10,10 to 1000
"CC(Nc1ncnc(N)c1C#N)c1oc(=O)c2ccccc2c1-c1ccc(CN2CCOCC2)s1 (stereo not drawn) [Example 82, 4-amino-6-((1-(4-(5-(morpholinomethyl)thiophen-2-yl)-1-oxo-1H-isochromen-3-yl)ethyl)amino)pyrimidine-5-carbonitrile hydrochloride]",> 1000,< 10,10 to 1000
